32 compounds from US20250145633A1, “SUBSTITUTED FURANOPYRIMIDINE COMPOUNDS AS PDE1 INHIBITORS” (Dart NeuroScience, LLC, priority 2017, published 2025) can be followed below.

Bounds are passed on as bounds.

In one experiment the target is human PDE1B enzyme (Homo sapiens (Human), UniProt Q01064). The experiment can be described thus: IMAP TR-FRET PDE1B enzymatic assay. As to conditions: negative log of half-maximal molar inhibitory concentration; 200 nM FAM-cAMP; values given as bins. Type of experiment: biochemical. A digest of the protocol:
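Full-length GST-tagged human PDE1B (250 pg/well) in IMAP BSA buffer with 10 U/ml calmodulin and 2.5 mM CaCl2; compound pre-incubated 5 min at room temperature, then 200 nM (final) FAM-cAMP for 30 min. IMAP binding reagent/Tb added, 1 h; TR-FRET 520/490 ratio read. IC50 from sigmoidal dose-response fit.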
For orientation: Time-resolved FRET reads energy transfer from a long-lived donor to a nearby acceptor.
Consider `Cc1oc2ncnc(NC3(C)CC3)c2c1C(=O)N1CCCC(c2ccc(F)cc2)CC1` (centres unmarked) [Example 296, 5-[4-(4-Fluorophenyl)azepane-1-carbonyl]-6-methyl-N-(1-methylcyclopropyl)furo[2,3-d]pyrimidin-4-amine], for which the “PDE1b (pIC50)” value was >8.
Take `COc1ccc(C2(NC(=O)c3c(C)oc4ncnc(NC5(C)CC5)c34)CC2)cc1F` [Example 298, N-[1-(3-Fluoro-4-methoxyphenyl)cyclopropyl]-6-methyl-4-[(1-methylcyclopropyl)amino]furo[2,3-d]pyrimidine-5-carboxamide]: the “PDE1b (pIC50)” value is >8.
Still for that read-out and setting: under `Cc1oc2ncnc(NC3(C)CC3)c2c1C(=O)N1CCC(c2ccccn2)CC1` [Example 301, 6-Methyl-N-(1-methylcyclopropyl)-5-[4-(pyridin-2-yl)piperidine-1-carbonyl]furo[2,3-d]pyrimidin-4-amine] stands >8.
Regarding `COc1ccc(C(C)NC(=O)c2c(C)oc3ncnc(NC4(C)CC4)c23)cc1F` (centres unmarked) [Example 304, N-[1-(3-Fluoro-4-methoxyphenyl)ethyl]-6-methyl-4-[(1-methylcyclopropyl)amino]furo[2,3-d]pyrimidine-5-carboxamide], the “PDE1b (pIC50)” value is listed as >8.
The same measure, in the same setting: then `COc1ccc([C@@H](C)NC(=O)c2c(C)oc3ncnc(NC4(C)CC4)c23)c(F)c1` [Example 306, N-[(1R)-1-(2-Fluoro-4-methoxyphenyl)ethyl]-6-methyl-4-[(1-methylcyclopropyl)amino]furo[2,3-d]pyrimidine-5-carboxamide], with >8.
`Cc1oc2ncnc(NC3(C)CC3)c2c1C(=O)N1CCC(c2ncccn2)CC1` [Example 309, 6-Methyl-N-(1-methylcyclopropyl)-5-[4-(pyrimidin-2-yl)piperidine-1-carbonyl]furo[2,3-d]pyrimidin-4-amine]: the “PDE1b (pIC50)” value is >8.
Same read-out and setting: under `Cc1oc2ncnc(NC3(C)CC3)c2c1C(=O)NCc1ccc(Cl)nc1` [Example 312, N-[(6-Chloropyridin-3-yl)methyl]-6-methyl-4-[(1-methylcyclopropyl)amino]furo[2,3-d]pyrimidine-5-carboxamide] stands >8; under `CCc1cc(CNC(=O)c2c(C)oc3ncnc(NC4(C)CC4)c23)no1` [Example 322, N-[(5-Ethyl-1,2-oxazol-3-yl)methyl]-6-methyl-4-[(1-methylcyclopropyl)amino]furo[2,3-d]pyrimidine-5-carboxamide], >8; under `Cc1oc2ncnc(NC3(C)CC3)c2c1C(=O)NCc1cc(C2CC2)on1` [Example 323, N-[(5-Cyclopropyl-1,2-oxazol-3-yl)methyl]-6-methyl-4-[(1-methylcyclopropyl)amino]furo[2,3-d]pyrimidine-5-carboxamide], >8.

Staying with this experiment, now noted: negative log of half-maximal molar inhibitory concentration; 200 nM FAM-cAMP; values given as bins; read-out: PDE1b (pIC50) (converted).
For the compound `Cc1oc2ncnc(NC3(C)CC3)c2c1C(=O)N1CCc2cnc(C(C)C)nc2C1` [Example 294, 6-Methyl-N-(1-methylcyclopropyl)-5-[2-(propan-2-yl)-5H,6H,7H,8H-pyrido[3,4-d]pyrimidine-7-carbonyl]furo[2,3-d]pyrimidin-4-amine], the IC50 is 10 to 100 nM.
On the same count and under the same terms, then `Cc1oc2ncnc(NC3(C)CC3)c2c1C(=O)N1CCCCC(c2ccc(F)cc2)C1` (centres unmarked) [Example 295, 5-[3-(4-Fluorophenyl)azepane-1-carbonyl]-6-methyl-N-(1-methylcyclopropyl)furo[2,3-d]pyrimidin-4-amine], with 10 to 100 nM; and `Cc1oc2ncnc(NC3(C)CC3)c2c1C(=O)NC1(CCO)CC1` [Example 297, N-[1-(2-Hydroxyethyl)cyclopropyl]-6-methyl-4-[(1-methylcyclopropyl)amino]furo[2,3-d]pyrimidine-5-carboxamide], with 10 to 100 nM.
With `Cc1oc2ncnc(NC3(C)CC3)c2c1C(=O)N1CCc2cnc(C3CC3)nc2C1` [Example 299, 5-{2-Cyclopropyl-5H,6H,7H,8H-pyrido[3,4-d]pyrimidine-7-carbonyl}-6-methyl-N-(1-methylcyclopropyl)furo[2,3-d]pyrimidin-4-amine], the IC50 was 10 to 100 nM.
Still for that read-out and setting: then `Cc1oc2ncnc(NC3(C)CC3)c2c1C(=O)NC1(C2CCOCC2)CC1` [Example 300, 6-Methyl-4-[(1-methylcyclopropyl)amino]-N-[1-(oxan-4-yl)cyclopropyl]furo[2,3-d]pyrimidine-5-carboxamide], with 10 to 100 nM.
The same measure, in the same setting: under `Cc1oc2ncnc(NC3(C)CC3)c2c1C(=O)NC(C)c1ncc(F)cn1` (centres unmarked) [Example 302, N-[1-(5-Fluoropyrimidin-2-yl)ethyl]-6-methyl-4-[(1-methylcyclopropyl)amino]furo[2,3-d]pyrimidine-5-carboxamide] stands 10 to 100 nM; under `Cc1oc2ncnc(NC3(C)CC3)c2c1C(=O)N1CCc2nc(F)ncc2C1` [Example 303, 5-{2-Fluoro-5H,6H,7H,8H-pyrido[4,3-d]pyrimidine-6-carbonyl}-6-methyl-N-(1-methylcyclopropyl)furo[2,3-d]pyrimidin-4-amine], 100 to 1000 nM.
Same read-out and setting: under `COc1ccc([C@H](C)NC(=O)c2c(C)oc3ncnc(NC4(C)CC4)c23)c(F)c1` [Example 305, N-[(1S)-1-(2-Fluoro-4-methoxyphenyl)ethyl]-6-methyl-4-[(1-methylcyclopropyl)amino]furo[2,3-d]pyrimidine-5-carboxamide] stands 10 to 100 nM; under `Cc1oc2ncnc(NC3(C)CC3)c2c1C(=O)N1CCc2cnc(F)nc2C1` [Example 307, 5-{2-Fluoro-5H,6H,7H,8H-pyrido[3,4-d]pyrimidine-7-carbonyl}-6-methyl-N-(1-methylcyclopropyl)furo[2,3-d]pyrimidin-4-amine], 10 to 100 nM.
In the case of `Cc1oc2ncnc(NC3(C)CC3)c2c1C(=O)N1CCN(c2nc(Cl)c(Cl)c(Cl)c2Cl)CC1` [Example 308, 6-Methyl-N-(1-methylcyclopropyl)-5-[4-(tetrachloropyridin-2-yl)piperazine-1-carbonyl]furo[2,3-d]pyrimidin-4-amine], the IC50 was 10 to 100 nM.
Still for that read-out and setting: under `Cc1oc2ncnc(NC3(C)CC3)c2c1C(=O)NC1CCCc2cccnc21` (centres unmarked) [Example 310, 6-Methyl-4-[(1-methylcyclopropyl)amino]-N-(5,6,7,8-tetrahydroquinolin-8-yl)furo[2,3-d]pyrimidine-5-carboxamide] stands 100 to 1000 nM; under `Cc1oc2ncnc(NC3(C)CC3)c2c1C(=O)NC1(c2cnccn2)CC1` [Example 311, 6-Methyl-4-[(1-methylcyclopropyl)amino]-N-[1-(pyrazin-2-yl)cyclopropyl]furo[2,3-d]pyrimidine-5-carboxamide], 10 to 100 nM; under `Cc1oc2ncnc(NC3(C)CC3)c2c1C(=O)NCc1cnc(Cl)nc1` [Example 313, N-[(2-Chloropyrimidin-5-yl)methyl]-6-methyl-4-[(1-methylcyclopropyl)amino]furo[2,3-d]pyrimidine-5-carboxamide], 10 to 100 nM.
`Cc1oc2ncnc(NC3(C)CC3)c2c1C(=O)N1CC(F)(c2ccccc2)C1` [Example 314, 5-(3-Fluoro-3-phenylazetidine-1-carbonyl)-6-methyl-N-(1-methylcyclopropyl)furo[2,3-d]pyrimidin-4-amine]: the IC50 is 10 to 100 nM.
Still for that read-out and setting: under `Cc1oc2ncnc(NC3(C)CC3)c2c1C(=O)NC(C)c1cnccn1` (centres unmarked) [Example 315, 6-Methyl-4-[(1-methylcyclopropyl)amino]-N-[1-(pyrazin-2-yl)ethyl]furo[2,3-d]pyrimidine-5-carboxamide] stands 10 to 100 nM.
Still for that read-out and setting: under `Cc1oc2ncnc(NC3(C)CC3)c2c1C(=O)NC1CCc2cccnc21` (centres unmarked) [Example 316, N-{5H,6H,7H-Cyclopenta[b]pyridin-7-yl}-6-methyl-4-[(1-methylcyclopropyl)amino]furo[2,3-d]pyrimidine-5-carboxamide] stands 100 to 1000 nM; under `Cc1oc2ncnc(NC3(C)CC3)c2c1C(=O)NC(C)c1ccncn1` (centres unmarked) [Example 317, 6-Methyl-4-[(1-methylcyclopropyl)amino]-N-[1-(pyrimidin-4-yl)ethyl]furo[2,3-d]pyrimidine-5-carboxamide], 10 to 100 nM; under `Cc1oc2ncnc(NC3(C)CC3)c2c1C(=O)NCc1cc(Br)no1` [Example 318, N-[(3-Bromo-1,2-oxazol-5-yl)methyl]-6-methyl-4-[(1-methylcyclopropyl)amino]furo[2,3-d]pyrimidine-5-carboxamide], 10 to 100 nM.
For the compound `Cc1cc(CNC(=O)c2c(C)oc3ncnc(NC4(C)CC4)c23)on1` [Example 319, 6-Methyl-N-[(3-methyl-1,2-oxazol-5-yl)methyl]-4-[(1-methylcyclopropyl)amino]furo[2,3-d]pyrimidine-5-carboxamide], the IC50 was 10 to 100 nM.
For `Cc1oc2ncnc(NC3(C)CC3)c2c1C(=O)N1CCC(c2nccn2C)C1` (centres unmarked) [Example 320, 6-Methyl-5-[3-(1-methyl-1H-imidazol-2-yl)pyrrolidine-1-carbonyl]-N-(1-methylcyclopropyl)furo[2,3-d]pyrimidin-4-amine], the IC50 was 10 to 100 nM.
Same read-out and setting: then `Cc1oc2ncnc(NC3(C)CC3)c2c1C(=O)N1CCC(c2cnn(C)c2)C1` (centres unmarked) [Example 321, 6-Methyl-5-[3-(1-methyl-1H-pyrazol-4-yl)pyrrolidine-1-carbonyl]-N-(1-methylcyclopropyl)furo[2,3-d]pyrimidin-4-amine], with 10 to 100 nM.
As to `Cc1oc2ncnc(NC3(C)CC3)c2c1C(=O)NCc1cc(C(C)C)on1` [Example 324, 6-Methyl-4-[(1-methylcyclopropyl)amino]-N-{[5-(propan-2-yl)-1,2-oxazol-3-yl]methyl}furo[2,3-d]pyrimidine-5-carboxamide], the IC50 was 10 to 100 nM.
Turning to `Cc1oc2ncnc(NC3(C)CC3)c2c1C(=O)NCc1cc(-c2ccc(F)cc2)on1` [Example 325, N-{[5-(4-Fluorophenyl)-1,2-oxazol-3-yl]methyl}-6-methyl-4-[(1-methylcyclopropyl)amino]furo[2,3-d]pyrimidine-5-carboxamide], the IC50 was 10 to 100 nM.
